Test results as given in US11331364B2, “Use for JNK inhibitor molecules for treatment of various diseases” (Xigen Inflammation Ltd., priority 2014, dated 2022).
Square brackets hold non-standard residues; d marks the D form. Peptide text beside a SMILES is read from it.

Assays:
Format in all cases: in vivo
[1] = tested on: K5.STAT3C mouse model of psoriasis; assay: K5.STAT3C mouse model of psoriasis, tape stripping, acanthosis; settings: 5 mg/kg IP QD D0-D5
Method: To this end, two independent experiments are performed, each with at least 15 mice per experiment (5 mice per group). In each experiment, BK5.STAT3C heterozygous transgenic mice (Tg(KRT5-Stat3*A661C*N663C)1Jdg, henceforth referred to as K5.STAT3C mice) were randomly allocated to the following experimental groups 1 and 2, and wild-type littermates were allocated to group 3:
On Day 0, psoriasis is induced by tape striping (12-18 times) the back of the mouse after depilation. To this end, mice were anaesthetized using a Ketamine/Xylazine cocktail (100 mg/kg and 10 mg/kg respectively) intraperitoneally, shaved, depilated and skin injury was applied by 15 gentle strokes of tape stripping. Mice were treated with either vehicle (saline) or XG-104 right before anaesthesia on day 0 and once a day thereafter for 5 days. […]
Animals are weighed once on day 0. […] After termination of the study at day 5, approximately 1 cm^2 skin biopsy (lesions) is collected on the back of each mouse, embedded with Optimal Cutting Temperature (OCT)-containing moulds, frozen on dry ice, sectioned in 6 μm slices using a cryotome and stained with H&E. Epidermal thickness (acanthosis) is histologically measured blinded by two independent experimenters. One slide per mouse and 10 different zones of the sections are measured.

[2] = tested on: endotoxins-induced uveitis albino rat model; assay: Endotoxins-induced uveitis (EIU), single intravenous injection, clinical scoring; parameters: key to clinical score (mean±SEM) / clinical score, median: clinical ocular inflammation score per eye, 0 to 4; settings: 24 h after LPS
Method: The anti-inflammatory potency of the JNK inhibitor of SEQ ID NO: 172 was tested in albino rats following intravenous administration (EIU/LPS model). The aim of this study was to determine the effects of single intravenous injections of SEQ ID NO: 172 (0.015, 0.18, and 1.80 mg/kg) on the inflammatory response in an endotoxins-induced uveitis albino rat model and to compare these affects to those obtained with prior art JNK inhibitor of SEQ ID NO: 197 (2 mg/kg). As a further control served phosphate sodic dexamethasone (“reference”) and vehicle (0.9% NaCl).
Sixty (60) male Lewis rats were randomly divided into six (6) groups often (10) animals each. 0.9% NaCl (vehicle, “control”), SEQ ID NO: 197 at 2 mg/kg and SEQ ID NO: 172 at three concentrations (1.80 mg/kg, 0.18 mg/kg and 0.015 mg/kg) were administered by intravenous injection just before EIU induction (on the day of induction). Accordingly, phosphate sodic dexamethasone (20 Dg/eye, 5 μl; “reference”) was administered by a single sub-conjunctival injection in both eyes just before EIU induction (on the day of induction). EIU was induced by footpad injection of lipopolysaccharide (LPS, 1 mg/kg). 24 hours after LPS injection, inflammatory response was evaluated by clinical scoring.
The intensity of clinical ocular inflammation was scored on a scale from 0 to 4 for each eye: […]

[3] = tested on: mouse model of scopolamine-induced dry eye; assay: Scopolamine-induced dry eye, topical ocular TID 21 days (TBUT, PRTT, histopathology); settings: for Mean PRTT AUC: Day 7-21, in mm·day (unit assumed); for Mean Calculated TBUT AUC: Day 7 to Day 21, in s·day (unit assumed)
Method: The objective of this study was to assess the effects of two different compounds, the all-D-retro-inverso JNK-inhibitor (poly-)peptide of SEQ ID NO: 197 and the JNK inhibitor (poly-)peptide of SEQ ID NO: 172, at three dose levels in a mouse model of scopolamine-induced dry eye.
The peptides of SEQ ID NO: 197 and SEQ ID NO: 172 were tested for efficacy in this murine model of dry eye. The peptides were both tested at a low, medium and a high dose. […] The vehicle, which also served as the negative control, was 0.9% Sodium Chloride for Injection USP.
The study consisted of a total of 9 groups of female C57BL/6 mice, comprising 8 groups of 12 mice each and an additional group of 4 mice. Bilateral short-term dry eye was induced by a combination of scopolamine hydrobromide (Sigma-Aldrich Corp., St. Louis, Mo.) injection (subcutaneous (SC), four times daily, 0.5 mg/dose, Days 0-21) and by exposing mice to the drying environment of constant air draft. […] Mice of Group 9 were maintained as un-induced, (no dry eye) untreated controls.
During the in-life (treatment) period, clinical observations were recorded once daily; slit-lamp examination (SLE) with corneal fluorescein staining, tear break-up time test (TBUT), and phenol red thread test (PRTT) were performed three times per week. Necropsies were performed on Day 22; eyes, eye lids, conjunctivae, and lacrimal glands were collected from both eyes of each animal. Tissues from the right eyes (oculus dexter, OD) were fixed and then evaluated microscopically. Tissues from the left eyes (oculus sinister; OS) were flash-frozen in liquid nitrogen and stored frozen at −80° C. for possible subsequent analyses.
The TBUT test was conducted three times weekly by measuring the time elapsed in seconds between a complete blink after application of fluorescein to the cornea and the appearance of the first random dry spot in the tear film. […] At least ninety seconds later, corneal epithelial damage was graded using a slit-lamp with a cobalt blue filter after another drop of 0.1% fluorescein was reapplied to the cornea; the cornea then was scored per the Draize ocular scale.
Tear production was measured three times a week in both eyes using PRTT test strips (Zone-Quick; Menicon, Nagoya, Japan). Prior to the first treatment of the day, a thread was applied to the lateral canthus of the conjunctival fornix of each eye for 30 seconds under slit-lamp biomicroscopy. Tear migration up the tread (i.e., the length of the wetted cotton thread) was measured using a millimeter scale.
At necropsy on Day 22, both eyes from each animal, including the globes, lacrimal glands, eyelids, and conjunctivae, were excised. The right eye and associated tissues were fixed by overnight submersion in modified Davidson's solution followed by transfer to 10% neutral buffered formalin (NBF). The fixed tissues of the right eye were dehydrated, embedded in paraffin, sectioned at 3 to 5-μm thicknesses, and slide-mounted tissues were stained with hematoxylin and eosin (H & E). Stained slides were evaluated via light microscopy. Detailed and complete histopathologic assessment was conducted on all parts of the eye, with at least two section levels being examined histopathologically for each right eye. Special attention was paid to the cornea, epithelia (including goblet cells) of the conjunctiva and cornea, as well as the lacrimal gland. These tissues were scored for injury based upon a 0-4 scale, with 0 being normal, 1 being minimal, 2 being mild, 3 being moderate, and 4 being severe. For each cornea, scores were based on corneal epithelium thickness, and corneal inflammation.

CC(C)C[C@H](NC(=O)[C@H](CC(N)=O)NC(=O)[C@H](CC(C)C)NC(=O)[C@@H](NC(=O)[C@@H](C)NC(=O)[C@@H]1CCCN1C(=O)[C@H](CCCNC(=N)N)NC(=O)[C@@H](CCCCN)NC(=O)[C@@H]1CCCN1C(=O)[C@H](CCCNC(=N)N)NC(=O)[C@@H](CCCNC(=N)N)NC(=O)[C@H](CCCNC(=N)N)NC(=O)[C@H](CCCNC(=N)N)NC(=O)[C@H](CCC(N)=O)NC(=O)[C@@H](CCCNC(=N)N)NC(=O)[C@H](CCCNC(=N)N)NC(=O)[C@H](CCCCN)NC(=O)[C@H](CCCCN)NC(=O)[C@H](N)CCCNC(=N)N)[C@@H](C)O)C(=O)N[C@H](Cc1ccccc1)C(N)=O [SEQ ID NO: 172, rKKRrQRRrRPkRPaTLNLf] (H-[dR]KKR[dR]QRR[dR]RP[dK]RP[dA]TLNL[dF]-NH2; N-terminus assumed)
acanthosis (epidermal thickness) [1]: significantly reduced the acanthosis
parakeratosis [1]: absence of any parakeratosis
clinical score (mean±SEM) ([2]; 0.015 mg/kg i.v.): 2.3±0.3
clinical score, median ([2]; 0.015 mg/kg i.v.): 2
reduction of inflammation vs vehicle ([2]; 0.015 mg/kg i.v.): 36%
clinical score (mean±SEM) ([2]; 0.18 mg/kg i.v.): 2.4±0.3
clinical score, median ([2]; 0.18 mg/kg i.v.): 2
reduction of inflammation vs vehicle ([2]; 0.18 mg/kg i.v.): 33%
clinical score (mean±SEM) ([2]; 1.80 mg/kg i.v.): 2.1±0.3
clinical score, median ([2]; 1.80 mg/kg i.v.): 2
reduction of severity of ocular inflammation vs vehicle ([2]; 1.80 mg/kg i.v.): 42%
TBUT mean nadir (Day 7) ([3]; 0.05% TID OU): 6.6 ± 0.4 s
TBUT mean peak (Day 9) ([3]; 0.05% TID OU): 8.0 ± 0.4 s
Mean PRTT AUC ([3]; 0.05% TID OU): 44.38
Mean Calculated TBUT AUC ([3]; 0.05% TID OU): 102.98
TBUT mean nadir (Day 7) ([3]; 0.2% TID OU): 6.7 ± 0.4 s
TBUT mean peak (Day 9) ([3]; 0.2% TID OU): 10.0 ± 0.7 s
histological cornea scores compared to cyclosporine group ([3]; 0.2% TID OU): not significantly different than the cyclosporine group scores
Mean PRTT AUC ([3]; 0.2% TID OU): 44.85
Mean Calculated TBUT AUC ([3]; 0.2% TID OU): 119.08
TBUT mean nadir (Day 7) ([3]; 0.6% TID OU): 6.7 ± 0.3 s
TBUT mean peak (Day 9) ([3]; 0.6% TID OU): 9.9 ± 0.8 s
histological cornea scores compared to cyclosporine group ([3]; 0.6% TID OU): not significantly different than the cyclosporine group scores
Mean PRTT AUC ([3]; 0.6% TID OU): 46.10
Mean Calculated TBUT AUC ([3]; 0.6% TID OU): 119.31
TBUT AUC compared with vehicle control ([3]; SEQ ID NO: 172 0.05%, 0.2% and 0.6%, cyclosporine 0.05%, Kruskal-Wallis): significant increases in the TBUT AUC
PRTT, aqueous tear production ([3]; low, mid and high dose levels): produced significantly more aqueous tears compared to vehicle-treated animals

CC(C)C[C@@H](NC(=O)[C@@H](Cc1ccccc1)NC(=O)[C@H]1CCCN1C(=O)[C@@H](CCC(N)=O)NC(=O)[C@H](NC(=O)[C@H]1CCCN1C(=O)[C@@H](CCCNC(=N)N)NC(=O)[C@@H](CO)NC(=O)[C@@H](CCC(N)=O)NC(=O)[C@H](N)CC(=O)O)C(C)C)C(=O)N[C@H](CC(N)=O)C(=O)N[C@H](CC(C)C)C(=O)N[C@@H](C(=O)N[C@@H](C(=O)N1CCC[C@@H]1C(=O)N[C@H](CCCNC(=N)N)C(=O)N[C@H](CCCCN)C(=O)N1CCC[C@@H]1C(=O)N[C@H](CCCNC(=N)N)C(=O)N1CCC[C@@H]1C(=O)N1CCC[C@@H]1C(=O)N[C@H](CCCNC(=N)N)C(=O)N[C@H](CCCNC(=N)N)C(=O)N[C@H](CCCNC(=N)N)C(=O)N[C@H](CCC(N)=O)C(=O)N[C@H](CCCNC(=N)N)C(=O)N[C@H](CCCNC(=N)N)C(=O)N[C@H](CCCCN)C(=O)N[C@H](CCCCN)C(=O)N[C@H](CCCNC(=N)N)C(=O)NCC(N)=O)[C@H](C)O)[C@H](C)O [SEQ ID NO: 197, dqsrpvqpflnlttprkprpprrrqrrkkrg, reference compound] (H-[dD][dQ][dS][dR][dP][dV][dQ][dP][dF][dL][dN][dL][dT][dT][dP][dR][dK][dP][dR][dP][dP][dR][dR][dR][dQ][dR][dR][dK][dK][dR]G-NH2)
clinical score (mean±SEM) ([2]; 2 mg/kg i.v.): 2.2±0.3
clinical score, median ([2]; 2 mg/kg i.v.): 2
decrease of EIU scores vs vehicle group ([2]; 2 mg/kg i.v.): 40%
corneal changes in comparison to other treatment groups ([3]; 0.06% TID OU): slightly more severe
Mean PRTT AUC ([3]; 0.06% TID OU): 39.96
Mean Calculated TBUT AUC ([3]; 0.06% TID OU): 88.54
Mean PRTT AUC ([3]; 0.25% TID OU): 42.79
Mean Calculated TBUT AUC ([3]; 0.25% TID OU): 91.19
histological cornea scores compared to cyclosporine group ([3]; 0.6% TID OU): not significantly different than the cyclosporine group scores
Mean PRTT AUC ([3]; 0.6% TID OU): 43.17
Mean Calculated TBUT AUC ([3]; 0.6% TID OU): 89.98
PRTT, aqueous tear production ([3]; low, mid and high dose levels): generally dose-dependent increases in PRTT
TBUT ([3]; low, mid and high dose levels): slight generally dose-dependent increases in TBUT
